The values below come from patent US20260193180A1, “AUTOPHAGY INDUCING COMPOUNDS AND USES THEREOF” (SAMSARA THERAPEUTICS INC., priority 2022, published 2026).

Molecules are shown by their SMILES.

The test system of series [1] is Human osteosarcoma U2OS cells. The series can be described thus: Acidic vesicle formation (lysosome/autolysosome staining, LysoView 633 / LysoTracker Deep Red), stimulation of autophagy. It counts as cell-based. The settings on record: 24 hours. A digest of the protocol:
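U2OS cells treated with compound for 24 h, then stained 45 min at 37° C with 1× LysoView 633 or 50 nM LysoTracker Deep Red plus Hoechst nuclei. Live-cell fluorescence images (Cy5/DAPI) scored for acidic vesicle formation relative to DMSO control.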

The test system of series [2] is dopaminergic Tyrosine hydroxylase (TH)-positive neurons. The series can be described thus: Cellular model of Parkinson's disease, MPP+ injury of primary mesencephalic culture. Format: cell-based, rat. Particulars: 0.5 μM, MPP+ 4 μM for 48 h. The protocol:
This model (supplied by Neuro-Sys SAS, France) is based on a primary culture of dopaminergic Tyrosine hydroxylase (TH)-positive neurons injured with the dopaminergic neurons-specific toxin (DA-toxin) 1-methyl-4-phenyl-1,2,3,6 tetrahydropyridine (MPTP) (Dauer and Przedborski, 2003). Any substances reducing DA-toxin neurotoxicity may be useful as a new therapeutic agent for the treatment or prevention of PD.
Primary culture of mesencephalic neurons: Rat dopaminergic neurons were cultured as described by Visanji et al., 2008 and Callizot et al., 2019. Briefly, pregnant female rat (Wistar) of 15 days of gestation were killed using a deep anesthesia with CO2 chamber and a cervical dislocation. The midbrains obtained from 15-day-old rat embryos (Janvier, France) were dissected under a microscope. The embryonic midbrains will be removed and placed in ice-cold medium of Leibovitz (L15) containing 2% of Penicillin-Streptomycin (PS) and 1% of bovine serum albumin (BSA). The ventral portion of the mesencephalic flexure, a region of the developing brain rich in dopaminergic neurons, was used for the cell preparations.
The midbrains were dissociated by trypsinisation for 20 min at 37° C. (solution at a final concentration of 0.05% trypsin and 0.02% EDTA). The reaction was stopped by the addition of Dulbecco's modified Eagle's medium (DMEM) containing DNAase I grade II (0.5 mg/mL) and 10% of foetal calf serum (FCS). Cells were then mechanically dissociated by 3 passages through a 10 ml pipette. Cells were then centrifuged at 180×g for 10 min at +4° C. on a layer of BSA (3.5%) in L15 medium. The supernatant was discarded and the cell pellets re-suspended in a defined culture medium consisting of Neurobasal supplemented with B27 (2%), L-glutamine (2 mM) and 2% of PS solution and 10 ng/mL of Brain-derived neurotrophic factor (BDNF) and 1 ng/mL of Glial-Derived Neurotrophic Factor (GDNF). Viable cells were counted in a Neubauer cytometer using the trypan blue exclusion test. […]

The nature of series [3]: Bioavailability / brain exposure in CD1 mice. It counts as in vivo. The settings on record: dose of 30 mg/kg. The procedure: The compounds have good properties for oral dosing and readily cross the blood brain barrier. For example, in CD1 mice, Compound 9 has a maximum concentration in brain plasma of 5067 ng/ml after 30 minutes at a dose of 30 mg/kg. Compound 12 has a maximum concentration in brain plasma of 5853 ng/ml after 8 hours at a dose of 30 mg/kg.

In the case of `CCOc1ccc(Cl)cc1CN1CC[C@@H](CN)C1.Cl` [Compound 12, (S)-(1-(5-chloro-2-ethoxybenzyl)pyrrolidin-3-yl)methanamine hydrochloride], the activation at 0.8 µM in series [1] (0.8 μM, read-out: Activity (percentage increase in acidic vesicle formation over the DMSO-treated control)) is 30 to 50%. The activation at 10 µM in series [1] (10 μM, read-out: increase in acidic vesicle formation over the DMSO-treated control) is not below 25%. Moreover, in series [2], the “neurite network of TH positive neurons” value was “protected”, the “neuronal survival (total number of TH positive neurons)” value is recorded as “improved” and the “α-Synuclein aggregation in dopaminergic neurons” value was “reduced”. In series [3], the “maximum concentration in brain plasma” value stood at 5853 ng/mL and the “time of maximum concentration in brain plasma” value amounted to 8 h.
